Measured values reported in the METLIN SMRT retention time set (Domingo-Almenara et al. 2019).

Assay: gradient 5% acetonitrile 3 min, to 50% in 2 min, to 85% in 15 min, held 3 min, 100 µL/min
Settings: column: Zorbax Extend-C18 2.1 x 50 mm; eluents: water / acetonitrile, 0.1% formic acid
Outline: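 The system's dead and dwell volumes were 40 μL and 900 μL, with a Zorbax Extend-C18 column (2.1 × 50 mm, 1.8 μm) run at 100 μL/min in water and acetonitrile containing 0.1% formic acid each. Pure standards were analyzed in mixtures of ~100 molecules by HPLC–quadrupole time-of-flight mass spectrometry in positive and negative ionization mode. Retention time was assigned from computationally picked, manually inspected adduct peaks.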

| SMILES | RP-LC retention time |
| --- | --- |
| Cc1ccccc1CNC(=O)C1CCN(S(=O)(=O)c2cc(C(=O)N3CCCC3)n(C)c2)CC1 | 738 s |
| CCCn1cc(S(=O)(=O)NCc2ccccc2C)c2cccnc21 | 946 s |
| Cc1ccc2[nH]cc(CCN3CC(C(=O)Nc4ccc5c(c4)CCC5)CC3=O)c2c1 (stereo not drawn) | 925 s |
| CC(C)n1cnc(S(=O)(=O)N2CCC(C(=O)Nc3ccc(F)cc3)CC2)c1 | 740 s |
| Cc1ccc(NC(=O)C2CCN(S(=O)(=O)c3cn(C(C)C)cn3)CC2)cc1N(C)C | 597 s |
| CC(C(=O)NCc1ccco1)C1CCOCC1 (stereo not drawn) | 644 s |
| Cc1ccc(-n2nnnc2CNC(=O)c2ccc([N+](=O)[O-])o2)cc1C | 745 s |
| Cc1nnc(C2CCCN(C(=O)c3cc(C(F)(F)F)cc(C(F)(F)F)c3)C2)s1 (stereo not drawn) | 823 s |
| Cc1noc(CNC(=O)CCCN2C(=O)c3ccccc3C2=O)n1 | 633 s |
| Cc1ccc(CNC(=O)CCc2nc3c(C)cccc3c(=O)n2C)cc1C | 892 s |
| CCOC(=O)Cc1ccc(NC(=O)NCc2c(C)nn(CC)c2C)cc1 | 649 s |
| Cc1cc(S(=O)(=O)N2CCC(n3cnnc3C)CC2)ccc1Cl | 739 s |
| O=C(CN1C(=O)C2CCCCN2c2ccc(C(=O)N3CCCCC3)cc21)N1CCc2ccccc2C1 (stereo not drawn) | 921 s |
| CCOC(=O)c1c(S(=O)(=O)N2CCC(C(=O)Nc3ccc(CC)cc3)CC2)c(C)n(CC)c1C | 984 s |
| O=C(c1cccs1)N1CC(C(=O)N2CCC(O)CC2)C1 | 566 s |
| Cc1cc(C)cc(-n2ccnc(NC(=O)Nc3ccc(F)c(Cl)c3)c2=O)c1 | 1150 s |
| CC(C)(C)C(O)CCNC(=O)C1(c2ccc(F)cc2)CC1 (stereo not drawn) | 823 s |
| CN1CCCn2cc(S(=O)(=O)Nc3cc(F)cc(F)c3)cc2C1=O | 718 s |
| CCCCN(Cc1ccco1)C(=O)Cn1nc(Cc2cccnc2)c2ccccc2c1=O | 701 s |

| SMILES | RP-LC retention time |
| --- | --- |
| O=C1C(O)C2(CCCCC2)N1C1CCN(Cc2ccc(F)c(F)c2)CC1 (stereo not drawn) | 548 s |
| O=C1C2CCCN2C(=O)c2ccccc2N1CCc1ccccc1 (stereo not drawn) | 757 s |
| CCS(=O)(=O)c1nc2ccc(NS(=O)(=O)c3c(C)n[nH]c3C)cc2s1 | 693 s |
| O=C(CSc1nnc(NC(=O)C2(c3cccs3)CCCC2)s1)c1ccccc1 | 1050 s |
| CCc1ccccc1NC(=O)C1CCN(S(C)(=O)=O)c2cc(Cl)ccc2O1 (stereo not drawn) | 944 s |
| c1cc(CN2CCCCC2c2nncn2CC2CC2)co1 (stereo not drawn) | 561 s |
| CCCNC(=O)N(C1CCOCC1)C1CCN(S(=O)(=O)c2cc(F)ccc2C)CC1 | 897 s |
| CCCn1cc(C(=O)Nc2ccc(OC)c(OC)c2)c(=O)c2ccc(C)nc21 | 1020 s |
| O=C(NCc1ccc(F)c(Cl)c1)C1=C2CCCN2c2ccc(F)cc2S1(=O)=O | 934 s |
| O=C(c1ccoc1)N1CCC(Cc2noc(C3CC3)n2)C1 (stereo not drawn) | 695 s |
| CCCN1C(=O)C(CC(=O)N(C)C)Sc2ncccc21 (stereo not drawn) | 655 s |
| CC(C)CC(=O)N1CCC(Oc2nccnc2N(C)C)C1 (stereo not drawn) | 691 s |
| Cc1ccc(CNC(=O)C2(c3ccc(NS(C)(=O)=O)cc3)CCCCC2)cc1 | 943 s |
| CC1=NS(=O)(=O)N(Cc2ccccc2)C=C1C(=O)OCc1cc(F)ccc1F | 1080 s |
| NC(=O)c1ccsc1NC(=O)c1c[nH]c2ccccc12 | 673 s |
| Cc1ccc(S(=O)(=O)N2CCC(C)(C(=O)NCc3ccc(F)cc3)CC2)cc1 | 942 s |
| O=C1CCCN1CCCN1C(=O)[C@H]2CN(Cc3ccc(F)cc3Cl)C[C@H]2C1=O | 658 s |
| CCCC(NC(=O)c1cccs1)C(=O)Nc1nc2ccccc2[nH]1 (stereo not drawn) | 668 s |

Other lines, results leading:

| RP-LC retention time | SMILES |
| --- | --- |
| 647 s | O=S(=O)(c1ccc2c(c1)-c1oncc1CO2)N1CCN(c2ccccn2)CC1 |
| 1220 s | Cc1ccc(S(=O)(=O)N2CCCCCC2)cc1-c1nnc(-c2ccc(F)cc2)o1 |
| 925 s | Cc1ccc(CNC(=O)C2(C)CCN(S(=O)(=O)c3ccccc3)CC2)cc1 |
| 766 s | Cc1ccc(-c2cc3n(n2)CCCN(C(=O)c2cnccn2)C3)cc1 |
| 1100 s | CCc1ccc(S(=O)(=O)N2CCCN(C)c3ccccc32)cc1 |
| 927 s | CCOC(=O)c1cccc(NC2=NS(=O)(=O)C(c3ccc(F)cc3)=C2C)c1 |
| 978 s | O=C(Nc1cccc(OCc2nnc(-c3ccc(Cl)cc3)o2)c1)C1CCC1 |
| 515 s | COc1cc(N2CCN(C(=O)c3cnccn3)CC2)nc(C)n1 |
| 1160 s | COc1ccc(-c2nc(-c3ccc4c(c3)oc(=O)n4C(C)C)no2)cc1F |
| 624 s | CCCn1nnc2cc(-c3noc(CNC(=O)c4ccccc4)n3)ccc21 |
| 841 s | Cc1nn(-c2ccc(C(=O)NCc3cccs3)cc2)c2c1C(=O)CC(C)(C)C2 |
| 580 s | CCCc1cc(N2CCN(C(=O)c3cccnc3)CC2)nc2nnc(CC)n12 |
| 849 s | O=C(CCn1c(N2CCCC2)nc2ccsc2c1=O)N1CCN(c2ccccc2F)CC1 |
| 1100 s | Clc1ccccc1-c1noc(Cc2nnc(-c3cccc(Br)c3)o2)n1 |
| 1020 s | CC(C)c1noc(-c2cc(=O)n(CC(=O)Nc3cccc(F)c3)c3ccccc23)n1 |
| 970 s | CCc1cccc(NC(=O)CCc2c(C)nc3nc(-c4cc(OC)cc(OC)c4)nn3c2C)c1 |
| 943 s | O=C(NCC1CCCO1)c1cccn1Cc1noc(-c2ccc(Cl)cc2)n1 (stereo not drawn) |
| 774 s | CCc1ccc(S(=O)(=O)N2CCCC(Cn3cnc4cccnc43)C2)cc1 (stereo not drawn) |
| 1050 s | COc1ccc(OC)c(S(=O)(=O)N2CCc3nc(-c4ccc(F)cc4)ncc3C2)c1 |
| 998 s | Cc1ccc2[nH]cc(CCNC(=O)c3ccc(N4CCCC4)c(S(=O)(=O)N4CCCC4)c3)c2c1 |
| 1180 s | O=S(=O)(Nc1ccc(-c2noc(-c3ccc(Cl)cc3)n2)cc1)c1cccs1 |
| 735 s | CCOCCCNC(=O)N1CC(Oc2cccc(-c3nc(C)no3)c2)C1 |
| 632 s | CCN(CC)Cc1nc(-c2ccc(N3CCSCC3)nc2)no1 |
| 772 s | c1ccc(-c2noc(-c3ccc(N4CCN(C5CCCCC5)CC4)nc3)n2)cc1 |
| 1190 s | CC(C)c1ccc(Nc2c(-c3cc(Br)ccc3O)nc3ncccn23)cc1 |
| 1010 s | CCCc1nc(-c2c(C)cc(C)nc2NC(=O)c2cccc(Br)c2)no1 |

| RP-LC retention time | SMILES |
| --- | --- |
| 1040 s | COc1ccc(Cl)cc1S(=O)(=O)c1cnc(N2CCC(C)CC2)nc1N |
| 982 s | COc1cccc(NC(=O)Cn2c(=O)cc(-c3nc(C(C)C)no3)c3ccccc32)c1 |
| 816 s | CCn1nnc2cc(-c3noc(CNC(=O)Cc4ccc(Cl)cc4)n3)ccc21 |
| 642 s | CCCNC(=O)N1CCC(c2noc(-c3ccncc3)n2)C1 (stereo not drawn) |
| 1100 s | Cc1oc(-c2ccccc2)nc1Cc1noc(COc2ccc(F)cc2)n1 |
| 1060 s | O=C(NCc1ccc(F)cc1Cl)c1sc2ncccc2c1-n1cccc1 |
| 691 s | O=S(=O)(c1ccc(F)cc1)N1CCC2(CC1)NCCN=C2NCc1cccc(F)c1 |
| 657 s | CCn1nccc1-c1csc(S(=O)(=O)N2CCN(c3ccccn3)CC2)c1 |
| 626 s | Fc1ccc(OCc2nc(C3CCNC3)no2)cc1 (stereo not drawn) |
| 904 s | Cc1ccc2ncn(C3CCN(S(=O)(=O)c4ccc(F)cc4F)CC3)c(=O)c2c1 |
| 844 s | COc1cccc(-c2cn3ccn(-c4ccc(F)c(F)c4)c(=O)c3n2)c1 |
| 960 s | COc1ccc(-c2[nH]c3ccccc3c2C(C[N+](=O)[O-])c2cccs2)cc1OC (stereo not drawn) |
| 893 s | O=C(NCC(=O)N1CCOC(c2ccccc2)C1)c1ccc(-c2ccccc2)cc1 (stereo not drawn) |
| 981 s | O=C(C1CCN(c2nc3ccc(-c4cccc(F)c4)nc3s2)CC1)N1CCCC1 |
| 1060 s | Cc1ccccc1NC(=O)C1CCN(S(=O)(=O)c2cc(-c3noc(C4CCC4)n3)cs2)CC1 |
| 798 s | CC(=O)Nc1ccc(Cc2nc(-c3cccc(-c4ccn[nH]4)c3)no2)cc1 |
| 842 s | Cc1ccc(C(=O)NCc2noc(C3CCCC3)n2)cc1 |
| 1190 s | CC(NC(=O)c1c(O)c2cccnc2n(-c2ccccc2)c1=O)c1ccccc1 (stereo not drawn) |
| 1150 s | COc1ccc(-c2noc(-c3ccc(N4CCN(c5ncccn5)CC4)nc3)n2)cc1 |
| 837 s | COc1cccc(CNC2=NCCNC23CCN(S(=O)(=O)c2ccc(C(C)(C)C)cc2)CC3)c1 |
| 1120 s | Cc1ccc(-c2cc3c(=O)n(Cc4noc(-c5ccc6c(c5)OCO6)n4)ccn3n2)c(C)c1 |
| 683 s | CCN(CC)c1nc2ccsc2c(=O)n1CCC(=O)N1CCN(c2ccccn2)CC1 |
| 652 s | CCN1C(=O)COc2cc(-c3noc(C(=O)N4CCN(C5CCCCC5)CC4)n3)ccc21 |
| 874 s | O=C(Nc1ccc(Cl)cc1)C1CCN(C(=O)c2ncn3c2COC(c2ccc(F)cc2)C3)CC1 (stereo not drawn) |
| 1320 s | Cc1ccc(-c2csc(Cc3nc(-c4ccc(F)cc4)no3)n2)cc1C |
